Data taken from paper PMC6880192, “Structure–Effect Relationships of Novel Semi-Synthetic Cannabinoid Derivatives” (Frontiers in Pharmacology, 2019).

Key:
CB2-receptor [1] = target: T1, CB2-receptor (Homo sapiens, UniProt P34972); test: Competition binding against [3H]-CP55940, CB2 membranes; conditions: ratio of Ki values
T1 construct: expressed in transfected cells; host or cells: CHO cells, stably transfected with CB2 cDNA (from IMIBIC) and transiently with CRE-luc

CB1-receptor = target: T2, CB1-receptor (Homo sapiens, UniProt P21554); test: cAMP-dependent luciferase assay in CHO-CB1-CRE-luc cells; assay type: cell-based; conditions: CHO-CB1-CRE-luc, summary classification
T2 construct: expressed in transfected cells; host or cells: CHO cells, stably transfected with CB1 cDNA (from IMIBIC) and transiently with CRE-luc
T2 sequence (P21554 whole entry): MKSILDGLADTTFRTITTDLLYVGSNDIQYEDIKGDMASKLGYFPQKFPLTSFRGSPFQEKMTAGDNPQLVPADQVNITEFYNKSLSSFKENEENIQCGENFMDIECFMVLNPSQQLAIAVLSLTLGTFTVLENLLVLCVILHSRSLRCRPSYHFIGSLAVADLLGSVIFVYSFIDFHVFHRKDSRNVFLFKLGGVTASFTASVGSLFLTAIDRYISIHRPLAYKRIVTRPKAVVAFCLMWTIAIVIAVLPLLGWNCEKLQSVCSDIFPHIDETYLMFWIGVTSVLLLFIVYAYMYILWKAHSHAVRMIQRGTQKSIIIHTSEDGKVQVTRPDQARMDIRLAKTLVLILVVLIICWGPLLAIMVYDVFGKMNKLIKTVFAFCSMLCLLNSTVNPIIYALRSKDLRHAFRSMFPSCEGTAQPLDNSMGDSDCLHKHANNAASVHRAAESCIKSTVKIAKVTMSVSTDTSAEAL
Description: (§1) Briefly, CHO cells were stably transfected with CB1- and CB2-receptor complementary DNAs (cDNAs) (kindly provided by IMIBIC). Around 10^5 transfected cells per milliliter were seeded in 24-well plates and transiently transfected with the plasmid CRE-luc using Roti-Fect (Carl Roth, Karlsruhe) following the manufacturer’s instructions. The cells were harvested after 24 h. Two transfected cell types resulted: CHO-CB1-CRE-luc and CHO-CB2-CRE-luc.
(§2) To test for agonistic activity at the CB1-receptor, the CHO-CB1-CRE-luc cells were stimulated for 6 h with increasing concentrations of the test compounds ([Bouaboula et al. 1997]). Forskolin (FSK), a strong CB-receptor-independent activator of adenylyl-cyclase was used at 10 µmol/L as a positive control. To investigate the antagonistic activity, the CHO-CB1-CRE-luc cells were pre-incubated for 15 min with the test compounds before stimulation for 6 h with 1 µmol/L WIN ([Zheng et al. 2013]). To investigate CB2-receptor agonistic activity, CHO-CB2-CRE-luc cells were pre-incubated for 15 min with increasing concentrations of the test substances and then for 6 h with 10 µmol/L FSK. WIN, a non-specific agonist at CB2-receptors, was used as a positive control. To confirm CB2-receptor agonistic activities of the test compounds, CHO-CB2-CRE-luc cells were pre-incubated with the specific CB2-receptor antagonist AM630 (1 µmol/L, 6-iodopravadoline; Cayman, distributed by Biozol, Hamburg) ([Ross et al. 1999]; [Zheng et al. 2013]) and then treated with increasing concentrations of the test substances.
(§3) After the stimulations and incubations, cells were lysed in a solution of 25 mmol Tris-phosphate (pH = 7.8), 8 mmol MgCl2, 1 mmol dithiothreitol (DTT), 1% Triton X-100, and 7% glycerol. The luciferase activity was measured with a Luciferase Assay Kit (Promega, Madison) according to the manufacturer’s instructions using an AutoLumat LB 9501 (Berthold Technologies, Bad Wildbad).

CB2-receptor [2] = target: T1, CB2-receptor; test: cAMP-dependent luciferase assay in CHO-CB2-CRE-luc cells; assay type: cell-based; conditions: for CB2-receptor agonistic activity (fold induction of CRE-luc): 15 min pre-incubation, then 10 µmol/L FSK for 6 h; for Effect on CB2: CHO-CB2-CRE-luc, summary classification
Description: as §1, §2, §3

NFAT = test: PMA/IO-induced NFAT-luc activation in Jurkat T-cells; assay type: cell-based; conditions: 0.5–25 µmol/L
Description: Jurkat T-cells (10^6 cells per milliliter) were transiently transfected with plasmids that contained an NF-κB-dependent (KBF-luc) or NFAT-dependent (NFAT-luc) promotors fused to the luciferase gene using Lipofectin (Life Technologies, Carlsbad) according to the manufacturer’s instructions ([Yano et al. 1987]; [Durand et al. 1988]). Twenty-four hours after transfection, cells were stimulated for 30 min with increasing doses of the test compounds or WIN as a control (Tocris, Bristol). Then PMA (50 ng/ml)—for NFAT-luc—plus ionomycin (0.5 µg/ml) (Sigma-Aldrich, St. Louis) was added, followed by a 6 h incubation period.
as §3

primary human monocytes = test: Anti-inflammatory effect on LPS-treated monocytes (ELISA); assay type: cell-based
Description: Human peripheral blood monocytes were prepared from healthy donors who provided written informed consent at the local blood bank (University Hospital of Freiburg, Germany). Mononuclear cells were isolated by density gradient centrifugation according to standard protocol ([English and Andersen, 1974]) using lymphocyte separation medium, (PAN Biotech, Aidenbach). Cells were resuspended in RPMI-1640 medium (Invitrogen/Thermo Fisher Scientific, Karlsruhe) containing 10% human serum (Hexacell, Berlin). About 5 × 10^5 cells per milliliter were seeded in 24-well plates and incubated at 37°C and 5% CO2. The medium and the non-adherent cells were removed by washing with PBS and fresh RPMI medium, and 1% human serum was added to each well.
To test the anti-inflammatory effect of the test compounds, monocytes were incubated for 30 min with increasing doses of the test compounds. Then lipopolysaccharide (LPS) (10 ng/ml; Escherichia coli, Sigma-Aldrich, St. Louis) was added followed by a 24 h incubation period. The supernatants were removed and the levels of IL-1β, IL-6, IL-8, TNF-α, and prostaglandin E2 (PGE2) determined by enzyme-linked immunosorbent assay (ELISA) performed according to the manufacturer’s instructions (IL-1β from Hiss, Freiburg; IL-6, IL-8, and TNF-α from ImmunoTools, Friesoythe; and PGE2 from Cayman, distributed by Biozol, Hamburg). Stimulation with LPS alone was considered 100%.

RAW264.7 macrophages = test: MTT cytotoxicity assay; assay type: cell-based; conditions: RAW264.7, concentrations of 5 and 10 µmol/L
Text: Cytotoxicity tests were done on CHO cells, Jurkat T-cells, or RAW264.7 macrophages using the MTT assay (Sigma-Aldrich, St. Louis) and on primary human monocytes with the alamarBlue assay (Thermo Fisher Scientific, Karlsruhe).

CB1-/CB2-receptors = system: CB1-/CB2-receptors; set-up: method as in Rosenthaler et al. 2014; conditions: ref Rosenthaler et al. 2014; cited from earlier work

T1 sequence (P34972 whole entry): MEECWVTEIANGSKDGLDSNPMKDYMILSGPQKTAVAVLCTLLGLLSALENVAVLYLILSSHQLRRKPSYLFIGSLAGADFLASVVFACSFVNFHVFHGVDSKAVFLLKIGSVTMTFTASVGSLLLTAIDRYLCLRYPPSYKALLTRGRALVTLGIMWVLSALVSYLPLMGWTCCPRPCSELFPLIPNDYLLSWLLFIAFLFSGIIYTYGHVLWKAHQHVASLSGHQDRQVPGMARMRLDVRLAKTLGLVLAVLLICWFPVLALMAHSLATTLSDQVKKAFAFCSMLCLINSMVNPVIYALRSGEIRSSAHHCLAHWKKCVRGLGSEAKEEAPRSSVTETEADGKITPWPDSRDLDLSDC

| Compound | Selectivity CB2/CB1 (CB2-receptor [1]) | Effect on CB1 (CB1-receptor) | CB2-receptor agonistic activity (fold induction of CRE-luc) (CB2-receptor [2]) | Effect on CB2 (CB2-receptor [2]) | Inhibition of PMA/IO-induced NFAT activation (NFAT) | LPS-induced IL-1β release (primary human monocytes; LPS 10 ng/ml, 24 h) | LPS-induced IL-6 release (primary human monocytes; LPS 10 ng/ml, 24 h) | LPS-induced IL-8 release (primary human monocytes; LPS 10 ng/ml, 24 h) | LPS-induced TNF-α release (primary human monocytes; LPS 10 ng/ml, 24 h) | Effect on cell viability (RAW264.7 macrophages) | Affinity for CB1-/CB2-receptors (CB1-/CB2-receptors) | CB2 agonistic effect compared with positive control WIN (CB2-receptor [2]; same dose as 1 µmol/L WIN) | LPS-stimulated IL-8 synthesis (primary human monocytes; dose of 1 µmol/L) | LPS-stimulated PGE2 synthesis (primary human monocytes; dose of 1 µmol/L) |
| --- | --- | --- | --- | --- | --- | --- | --- | --- | --- | --- | --- | --- | --- | --- |
| C=C(C)[C@@H]1CCC(C)=C[C@H]1c1c(O)cc(CCCCC)c(C(=O)OCC(O)CO)c1O (stereo partly drawn) [GCBD (3), 2,3-dihydroxypropyl cannabidiolate] | 7.8 | Antagonist | dose-dependent agonistic effects | Agonist | significantly inhibited | significantly inhibited | significantly inhibited | costimulated | significantly inhibited | negative effect on cell viability |  |  |  |  |
| C=C(C)[C@@H]1CCC(C)=C[C@H]1c1c(O)cc(CCCCC)cc1O [CBD, (-)-trans-cannabidiol] |  |  |  |  |  |  |  |  |  |  | poor affinity |  |  |  |
| C=C(C)[C@@H]1CCC(C)=C[C@H]1c1c(O)cc(CCCCC)c(C(=O)OCCO)c1O [2-HEC (1), 2-hydroxyethyl cannabidiolate] | 10.5 | Antagonist | dose dependency | Agonist | significantly inhibited | significantly inhibited | significantly inhibited |  | significantly inhibited | negative effect on cell viability |  | as strong as the same dose of the positive control |  |  |
| C=C(C)[C@@H]1CCC(C)=C[C@H]1c1c(O)cc(CCC)cc1O [CBDV, (-)-trans-cannabidivarin] |  |  |  |  |  |  |  |  |  |  | poor affinity |  |  |  |
| C=C(C)[C@@H]1CCC(C)=C[C@H]1c1c(O)cc(CCCCC)c(C(=O)OCC(O)CCC)c1O (stereo partly drawn) [2-HPC (2), 2-hydroxypentyl cannabidiolate] |  | Antagonist |  | Agonist | significantly inhibited |  | significantly inhibited |  | significantly inhibited | negative effect on cell viability |  |  | inhibited | inhibited |
